From ChEMBL document CHEMBL1681635, “II. SAR studies of pyridyl-piperazinyl-piperidine derivatives as CXCR3 chemokine antagonists” (Bioorg Med Chem Lett, 2011)

Columns and labels:
[1] = biological target: T1, C-X-C chemokine receptor type 3 (Homo sapiens, UniProt P49682); assay: Antagonist activity at human CXCR3; type: functional
T1 sequence (P49682 whole entry): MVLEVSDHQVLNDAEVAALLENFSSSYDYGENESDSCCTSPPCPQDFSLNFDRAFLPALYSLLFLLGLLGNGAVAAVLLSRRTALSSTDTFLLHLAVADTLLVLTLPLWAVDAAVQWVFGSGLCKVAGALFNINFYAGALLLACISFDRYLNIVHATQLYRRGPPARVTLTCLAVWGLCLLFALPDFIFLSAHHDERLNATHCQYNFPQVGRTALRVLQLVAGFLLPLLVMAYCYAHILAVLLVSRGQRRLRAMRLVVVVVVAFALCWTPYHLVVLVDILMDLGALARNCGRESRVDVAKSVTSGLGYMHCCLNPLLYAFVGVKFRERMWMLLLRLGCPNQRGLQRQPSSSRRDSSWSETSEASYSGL

[2] = AUC in Sprague-Dawley rat at 10 mg/kg, po after 6 hrs; type: ADME, organism-based; set-up: time < 6 hr, dose 10 mg/kg, route oral; conditions: plasma
[3] = biological target: T2, C-X-C chemokine receptor type 3 (Mus musculus, UniProt O88410); assay: Antagonist activity at mouse CXCR3; type: functional
T2 sequence (O88410 whole entry): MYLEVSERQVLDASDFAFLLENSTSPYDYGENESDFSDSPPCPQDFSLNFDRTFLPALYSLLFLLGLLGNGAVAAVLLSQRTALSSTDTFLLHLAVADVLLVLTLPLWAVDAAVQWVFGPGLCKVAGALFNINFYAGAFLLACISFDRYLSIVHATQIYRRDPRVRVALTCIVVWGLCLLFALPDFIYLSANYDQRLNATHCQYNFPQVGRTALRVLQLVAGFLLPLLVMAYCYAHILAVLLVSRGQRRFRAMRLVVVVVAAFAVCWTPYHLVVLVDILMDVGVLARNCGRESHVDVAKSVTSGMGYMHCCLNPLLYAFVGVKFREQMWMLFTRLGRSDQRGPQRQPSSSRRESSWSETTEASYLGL

[4] = biological target: T3, C-X-C chemokine receptor type 3 (Rattus norvegicus, UniProt Q9JII9); assay: Antagonist activity at rat CXCR3; type: functional
T3 sequence (Q9JII9 whole entry): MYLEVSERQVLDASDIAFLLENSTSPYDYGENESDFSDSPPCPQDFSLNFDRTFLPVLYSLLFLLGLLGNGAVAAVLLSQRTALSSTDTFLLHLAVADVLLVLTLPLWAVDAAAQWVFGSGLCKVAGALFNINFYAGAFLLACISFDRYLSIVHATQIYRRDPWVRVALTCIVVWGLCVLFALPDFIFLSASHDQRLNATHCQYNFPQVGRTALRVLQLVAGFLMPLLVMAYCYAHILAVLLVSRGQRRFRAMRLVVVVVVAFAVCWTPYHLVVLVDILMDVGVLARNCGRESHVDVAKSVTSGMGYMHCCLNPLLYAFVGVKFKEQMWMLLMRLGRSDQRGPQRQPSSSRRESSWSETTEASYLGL

| Compound | IC50 [1] [nM] | also measured |
| --- | --- | --- |
| C[C@H]1CN(c2ncc(C(=N)N)cc2Cl)CCN1C1CCN(Cc2ccc(Cl)cc2)CC1 | 80 | – |
| CCNC(=N)c1cnc(N2CCN(C3CCN(Cc4ccc(Cl)cc4)CC3)[C@@H](C)C2)c(Cl)c1 | 83 | – |
| CC(=O)Nc1cnc(N2CCN(C3CCN(Cc4ccc(Cl)cc4)CC3)[C@@H](C)C2)c(Cl)c1 | 8 | – |
| C[C@H]1CN(c2ncc(NC(=O)C3CC3)cc2Cl)CCN1C1CCN(Cc2ccc(Cl)cc2)CC1 | 20 | – |
| C[C@H]1CN(c2ncc(C(N)=O)cc2Cl)CCN1C1CCN(Cc2ccc(Cl)cc2)CC1 | 39 | – |
| CCNC(=O)c1cnc(N2CCN(C3CCN(Cc4ccc(Cl)cc4)CC3)[C@@H](C)C2)c(Cl)c1 | 2.3 | – |
| CC(C)NC(=O)c1cnc(N2CCN(C3CCN(Cc4ccc(Cl)cc4)CC3)[C@@H](C)C2)c(Cl)c1 | 5 | – |
| C[C@H]1CN(c2ncc(C(=O)NCC3CCCCC3)cc2Cl)CCN1C1CCN(Cc2ccc(Cl)cc2)CC1 | 2.4 | – |
| C[C@H]1CN(c2ncc(C(=O)Nc3ccc(F)c(F)c3)cc2Cl)CCN1C1CCN(Cc2ccc(Cl)cc2)CC1 | 22 | – |
| C[C@H]1CN(c2ncc(C(=O)N3CCCCC3)cc2Cl)CCN1C1CCN(Cc2ccc(Cl)cc2)CC1 | 900 | – |
| C[C@H]1CN(c2ncc(C(=O)N3CCC3)cc2Cl)CCN1C1CCN(Cc2ccc(Cl)cc2)CC1 | 630 | – |
| CC[C@H]1CN(c2ncc(C(=O)NC)cc2Cl)CCN1C1CCN(Cc2ccc(Cl)cc2)CC1 | 3 | – |
| CNC(=O)c1cnc(N2CCN(C3CCN(Cc4ccc(Cl)cc4)CC3)[C@@H](CC(C)C)C2)c(Cl)c1 | 260 | – |
| CNC(=O)c1cnc(N2CCN(C3CCN(Cc4ccc(Cl)cc4)CC3)[C@@H](c3ccccc3)C2)c(Cl)c1 | 830 | – |
| CNC(=O)c1cnc(N2CCN(C3CCN(Cc4ccc(Cl)cc4)CC3)C(C(=O)OC)C2)c(Cl)c1 (stereo not given) | 140 | – |
| CNC(=O)c1cnc(N2CCN(C3CCN(Cc4ccc(Cl)cc4)CC3)C(CO)C2)c(Cl)c1 (stereo not given) | 910 | – |
| CNC(=O)c1cnc(N2CCN(C3CCN(Cc4ccc(Cl)cc4)CC3)C(COC)C2)c(Cl)c1 (stereo not given) | 3100 | – |
| CNC(=O)c1cnc(N2CCN(C3CCN(Cc4ccc(Cl)cc4)CC3)C(C(=O)O)C2)c(Cl)c1 (stereo not given) | > 50000 | – |
| CNC(=O)c1cnc(N2CCN(C3CCN(Cc4ccc(Cl)cc4)CC3)C(C(=O)NC)C2)c(Cl)c1 (stereo not given) | 8900 | – |
| CCNC(=O)c1cnc(N2CCN(C3CCN(Cc4ccc(Cl)cc4F)CC3)[C@@H](CC)C2)c(Cl)c1 | – | AUC at 6 h [2]: 0.95 µM·h; IC50 [3]: 1.1 nM; IC50 [4]: 1.6 nM |
| CCNC(=O)c1cnc(N2CCN(C3CCN(Cc4ccc(Cl)cc4)CC3)[C@@H](C(C)C)C2)c(Cl)c1 | 23 | – |
| CCNC(=O)c1cnc(N2CCN(C3CCN(Cc4ccc(Cl)cc4F)CC3)C(C3CC3)C2)c(Cl)c1 (stereo not given) | 32 | – |
| CCNC(=O)c1cnc(N2CCN(C3CCN(Cc4ccc(Cl)cc4)CC3)[C@@H](CC)C2)c(Cl)c1 | 0.3 | AUC at 6 h [2]: 0.41 µM·h; IC50 [3]: 0.5 nM; IC50 [4]: 1.2 nM |
| CNC(=O)c1cnc(N2CCN(C3CCN(Cc4ccc(Cl)cc4)CC3)CC2)c(Cl)c1 | 560 | – |
| O=C(NCc1ccc(Cl)c(Cl)c1)c1cnc(N2CCC(N3CCN(Cc4ccc(Cl)cc4)CC3)CC2)c(Cl)c1 | 4500 | – |
| O=C(NCc1ccc(Cl)c(Cl)c1)c1cnc(N2CCN(C3CCN(Cc4ccc(Cl)cc4)CC3)CC2)c(Cl)c1 | 35 | – |
| CNC(=O)c1cnc(N2CCN(C3CCN(C(C)c4ccc(Cl)cc4)CC3)[C@@H](C)C2)c(Cl)c1 (single isomer, unassigned; isomer 1) | 5 | – |
| CNC(=O)c1cnc(N2CCN(C3CCN(C4CCc5cc(Cl)ccc54)CC3)[C@@H](C)C2)c(Cl)c1 (single isomer, unassigned; isomer 1) | 29 | – |
| CNC(=O)c1cnc(N2CCN(C3CCN(C4CCc5cc(Cl)ccc54)CC3)[C@@H](C)C2)c(Cl)c1 (single isomer, unassigned; isomer 2) | 35 | – |
| CNC(=O)c1cnc(N2CCN(C3CCN(C(C)c4ccc(Cl)cc4)CC3)[C@@H](C)C2)c(Cl)c1 (stereo in doubt; 6l) | 110 | – |
